Reference: publication PMC2965585 (Bioorganic & medicinal chemistry letters, 2010)

Assays:
[1] = tested on: Lethal Toxin (LT; PA + LF); set-up: species or system Fischer 344 rats; conditions: rat, in vivo
[2] = biological target: anthrax lethal factor (LF) (Bacillus anthracis, UniProt P15917); type: biochemical
anthrax lethal factor (LF), sequence (P15917 34-809 limits assumed): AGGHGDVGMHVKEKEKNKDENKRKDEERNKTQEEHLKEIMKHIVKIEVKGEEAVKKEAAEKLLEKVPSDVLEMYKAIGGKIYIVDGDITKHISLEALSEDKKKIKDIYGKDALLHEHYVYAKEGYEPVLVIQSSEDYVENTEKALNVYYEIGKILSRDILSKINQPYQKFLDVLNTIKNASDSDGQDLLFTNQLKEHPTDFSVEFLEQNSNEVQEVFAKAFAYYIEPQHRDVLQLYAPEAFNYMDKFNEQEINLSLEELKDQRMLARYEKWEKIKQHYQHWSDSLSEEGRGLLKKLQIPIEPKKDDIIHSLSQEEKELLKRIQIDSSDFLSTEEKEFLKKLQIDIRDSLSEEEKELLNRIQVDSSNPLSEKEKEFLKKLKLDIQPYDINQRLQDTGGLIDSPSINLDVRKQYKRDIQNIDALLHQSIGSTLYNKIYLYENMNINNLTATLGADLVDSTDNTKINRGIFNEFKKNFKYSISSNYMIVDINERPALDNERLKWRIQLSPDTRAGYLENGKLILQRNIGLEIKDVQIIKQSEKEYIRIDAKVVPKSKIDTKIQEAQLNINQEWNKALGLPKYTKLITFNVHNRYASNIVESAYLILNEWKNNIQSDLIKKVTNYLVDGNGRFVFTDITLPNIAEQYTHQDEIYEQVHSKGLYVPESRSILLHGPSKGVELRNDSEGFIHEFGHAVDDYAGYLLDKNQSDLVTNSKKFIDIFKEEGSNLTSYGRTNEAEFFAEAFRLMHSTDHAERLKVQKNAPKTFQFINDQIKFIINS

Cc1cc(CNCCCC[C@@H](Nc2cc(C)c(F)c(C)c2)C(=O)NO)ccc1F [Compound 16]
protection [1]: fully protective
protection (percent survival) [1]: 100%
time after treatment with LT at which animals became ill ([1]; 2.5 mg/kg): approximately 3 hours
time post exposure by which animals appeared fully recovered ([1]; 2.5 mg/kg): ≤ 24 h

CO[C@H](C[C@H](CCN(C)CCCc1ccc(F)c(C)c1)C(=O)NO)c1ccc(F)cc1 [Compound 40]
mode of inhibition (kinetic studies) [2]: competitive behavior
